Four molecules from EPA's ToxRefDB 2 can be followed below.

The subject of data set [1] is dog. The note with it: Subchronic oral toxicity in nonrodent, beagle, Feed, dose end: 13 week, group: systemic, systemic / clinical chemistry / alanine aminotransferase (alt/sgpt) / alanine aminotransferase (alt/sgpt) + systemic / clinical chemistry / ….
Data set [2] concerns dog. The note with it: Chronic toxicity; beagle; Oral; Feed; dose end: 53 week; group: systemic; systemic / pathology microscopic / stomach / [other] + systemic / pathology microscopic / stomach / inflammation.
The subject of data set [3] is mouse. As to conditions: Carcinogenicity, cd1, Oral, Feed, dose end: 18 month, group: systemic.
The test system of data set [4] is rat. The note with it: Combined chronic toxicity/carcinogenicity, wistar, Oral, Feed, dose end: 24 month, group: systemic.
Data set [5] deals with rat. As to conditions: Multigenerational reproductive toxicity study, sprague dawley, Oral, Gavage/Intubation, dose end: 2 generation.
Data set [6] concerns rat. As to conditions: Subchronic oral toxicity in rodents, sprague dawley, Gavage/Intubation, dose end: 13 week, group: systemic.
Data set [7] concerns rat. The note with it: Subchronic dermal toxicity, sprague dawley, Topical, dose end: 90 day, group: systemic.
The subject of data set [8] is rat. As to conditions: Combined chronic toxicity/carcinogenicity, sprague dawley, Oral, Gavage/Intubation, dose end: 104 week, group: systemic.
For data set [9], the system named is mouse. The note with it: Carcinogenicity, cd1, Dermal, Topical, dose end: 18 month, group: systemic.
A further data set deals with primate. The note with it: Chronic toxicity, macaque, Oral, Gavage/Intubation, dose end: 52 week, group: systemic.
Data set [10] has as its system mouse. The note with it: Combined chronic toxicity/carcinogenicity, b6c3f1, Oral, Water, dose end: 52 week, group: systemic.
Data set [11] relates to rat. The note with it: Subchronic oral toxicity in rodents, sprague dawley, Water, dose end: 90 day, group: systemic.
Data set [12] relates to mouse. As to conditions: Combined chronic toxicity/carcinogenicity, other, Oral, Feed, dose end: 95 week, group: systemic.
Data set [13] deals with rat. The note with it: Subchronic oral toxicity in rodents, fischer, Feed, dose end: 13 week, group: systemic.
In data set [14] the test system is dog. The note with it: Subchronic oral toxicity in nonrodent, beagle, Feed, dose end: 228 day, group: systemic, systemic / pathology microscopic / kidney / eosinophilic focus + systemic / pathology microscopic / kidney / pigmentation + systemic / ….
Data set [15] relates to dog. As to conditions: Subchronic oral toxicity in nonrodent, beagle, Feed, dose end: 184 day, group: systemic, systemic / clinical chemistry / [other] / [other] + systemic / clinical chemistry / aspartate aminotransferase (ast/sgot) / aspartate ….
In data set [16] the test system is rat. As to conditions: Multigenerational reproductive toxicity study, sprague dawley, Oral, Feed, dose end: 2 generation.
In data set [17] the test system is rat. As to conditions: Prenatal developmental toxicity study, sprague dawley, Oral, Gavage/Intubation, dose end: 15 GD.
The subject of data set [18] is dog. As to conditions: Chronic toxicity; beagle; Oral; Feed; dose end: 52 week; group: systemic; systemic / clinical chemistry / creatinine / creatinine + systemic / clinical chemistry / urea nitrogen / urea nitrogen.
Where [19] appears, read: systemic / clinical chemistry / chloride / chloride + systemic / hematology / erythrocyte (rbc) count differential / erythrocyte (rbc) + ….
The mark [20] stands for this setting: systemic / clinical chemistry / urea nitrogen / urea + systemic / clinical chemistry / phosphorus / phosphorus.
The mark [21] stands for this setting: group: offspring, developmental / developmental landmark / eye opening / eye opening + developmental / developmental landmark / pinna unfolding / pinna ….
[22] abbreviates: group: parental, systemic / in life observation / clinical signs / salivation.
[23] abbreviates: group: reproductive, reproductive / offspring survival early / litter size / litter size.
The mark [24] stands for this setting: systemic / pathology microscopic / skeletal muscle / atrophy.
Setting [25] is: systemic / pathology microscopic / skeletal muscle / atrophy + systemic / in life observation / body weight / body weight + systemic / in ….
[26] abbreviates: systemic / pathology microscopic / skeletal muscle / degeneration.
[27] abbreviates: systemic / pathology microscopic / skeletal muscle / degeneration + systemic / in life observation / body weight / body weight + systemic / ….
Setting [28] is: systemic / in life observation / body weight / body weight + systemic / in life observation / clinical signs / abnormal movements + systemic….
[29] abbreviates: systemic / in life observation / body weight / body weight + systemic / in life observation / clinical signs / emesis.
The mark [30] stands for this setting: systemic / organ weight / liver / absolute + systemic / organ weight / liver / relative to body weight + systemic / pathology microscopic / ….
The mark [31] stands for this setting: systemic / pathology microscopic / liver / adenoma + systemic / pathology microscopic / liver / hepatocellular carcinoma + systemic / organ ….
[32] abbreviates: systemic / in life observation / water consumption / water consumption + systemic / organ weight / kidney / relative to body weight + ….
[33] abbreviates: systemic / organ weight / spleen / absolute + systemic / pathology microscopic / liver / hypertrophy.
Setting [34] is: systemic / pathology microscopic / kidney / degeneration + systemic / hematology / platelet / platelet + systemic / in life observation / ….
[35] abbreviates: group: offspring, developmental / developmental malformation / bone / exencephaly + developmental / developmental malformation / eye / ablepharia.
The mark [36] stands for this setting: group: offspring, developmental / developmental malformation / bone / exencephaly + developmental / developmental malformation / eye / ablepharia + ….
Where [37] appears, read: group: parental, systemic / pathology microscopic / kidney / degeneration.
[38] abbreviates: group: parental, systemic / pathology microscopic / kidney / degeneration + systemic / in life observation / body weight / body weight + systemic / in life ….
[39] abbreviates: group: developmental, developmental / developmental malformation / bone / brachycephaly + developmental / developmental malformation / bone / delayed ossification….
Setting [40] is: group: maternal, systemic / in life observation / clinical signs / [other] + systemic / in life observation / clinical signs / alopecia + systemic / in life ….

Each structure is given as a SMILES string. A value given as a limit tells only on which side of the number the result lay.

In general, LOAEL refers to the lowest dose or exposure tested at which an adverse effect was seen. A word on the NOAEL: it is the highest tested level that showed no adverse finding. Consider `COC(=O)c1ccc(CNS(C)(=O)=O)cc1S(=O)(=O)NC(=O)Nc1nc(OC)cc(OC)n1` [Mesosulfuron-methyl], for which the LEL in the data set on dog [1] was determined as 648 mg/kg/day; in the data set with dog [2], 574 mg/kg/day; in the data set with mouse [3] (systemic / clinical chemistry / chloride / chloride + systemic / hematology / leukocyte (wbc) count differential / leukocyte (wbc)) it was 103 mg/kg/day; in the data set on rat [4] (systemic / clinical chemistry / urea nitrogen / urea), 73.8 mg/kg/day. The LOAEL in the data set on dog [1] is over 648 mg/kg/day; with dog [2] it was 574 mg/kg/day; in the data set on mouse [3] (setting [19]) it was over 1070 mg/kg/day; in the data set on rat [4] (setting [20]), over 764 mg/kg/day. The NEL in the data set on dog [1] came out at 348 mg/kg/day; in the data set on dog [2], 155 mg/kg/day; with mouse [3] (setting [19]), 10.6 mg/kg/day; in the data set on rat [4] (setting [20]), 7.46 mg/kg/day. For the same molecule, the NOAEL is at least 648 mg/kg/day in the data set with dog [1], 155 mg/kg/day in the data set with dog [2], at least 1070 mg/kg/day in the data set with mouse [3] (setting [19]) and at least 764 mg/kg/day with rat [4] (setting [20]).

As to `[Na+].[O-]n1ccccc1=S` [Sodium pyrithione], the LEL amounted to 3.5 mg/kg/day in the data set with rat [5] (setting [21]); 0.5 mg/kg/day with rat [5] (setting [22]); 3.5 mg/kg/day in the data set with rat [5] (group: reproductive, reproductive / offspring survival early / litter size / litter size + reproductive / reproductive performance / fertility / fertility + …); 2 mg/kg/day with rat [6] (setting [24]); 15 mg/kg/day in the data set on rat [7] (systemic / pathology microscopic / skeletal muscle / atrophy + systemic / pathology gross / skeletal muscle / reduced size); 1.5 mg/kg/day in the data set with rat [8] (setting [26]). Also, the LEL in the data set with mouse [9] (setting [28]) worked out at 2 mg/kg/day; with primate (setting [29]), 5 mg/kg/day. The LOAEL with rat [5] (setting [21]) amounted to 3.5 mg/kg/day; in the data set on rat [5] (group: parental, systemic / pathology microscopic / skeletal muscle / atrophy) it was 1.5 mg/kg/day; with rat [5] (setting [23]), 3.5 mg/kg/day; with rat [6] (setting [24]), 2 mg/kg/day; in the data set with rat [7] (setting [24]), 15 mg/kg/day; in the data set with rat [8] (setting [26]), 1.5 mg/kg/day. Moreover, the LOAEL in the data set with mouse [9] (systemic / in life observation / mortality / mortality + systemic / pathology microscopic / liver / hypertrophy) is 20 mg/kg/day; with primate (setting [29]), 25 mg/kg/day. Also, the NEL in the data set on rat [5] (setting [21]) was 1.5 mg/kg/day; in the data set on rat [5] (setting [22]) it was under 0.5 mg/kg/day; in the data set with rat [5] (setting [23]), 1.5 mg/kg/day; in the data set with rat [6] (setting [25]), 0.5 mg/kg/day; in the data set with rat [7] (setting [25]), 5 mg/kg/day; in the data set on rat [8] (setting [27]), 0.5 mg/kg/day. The results for the NEL in the data set with mouse [9] (setting [28]) and with primate (setting [29]) were under 2 mg/kg/day and under 5 mg/kg/day, respectively. The NOAEL in the data set with rat [5] (setting [21]) worked out at 1.5 mg/kg/day; in the data set on rat [5] (group: parental, systemic / pathology microscopic / skeletal muscle / atrophy + systemic / in life observation / body weight / body weight + systemic / in …), 0.5 mg/kg/day; in the data set on rat [5] (setting [23]) it was 1.5 mg/kg/day; with rat [6] (setting [25]), 0.5 mg/kg/day; in the data set on rat [7] (setting [25]), 5 mg/kg/day; in the data set on rat [8] (setting [27]) it was 0.5 mg/kg/day. Also, the NOAEL was found to be 2 mg/kg/day in the data set on mouse [9] (systemic / in life observation / mortality / mortality + systemic / pathology microscopic / lymph node / lymphoma malignant + systemic / in …) and 5 mg/kg/day in the data set on primate (systemic / in life observation / body weight / body weight + systemic / in life observation / clinical signs / emesis + systemic / in life …).

For the molecule `O=C([O-])C(Cl)(Cl)Cl.[Na+]` [Sodium trichloroacetate], in the data set with mouse [10] (setting [30]), the LOAEL is over 267 mg/kg/day and the NOAEL is at least 267 mg/kg/day. Moreover, in the data set with mouse [10] (setting [31]), the LEL is 133 mg/kg/day and the NEL was under 133 mg/kg/day. Moreover, in the data set on rat [11] (setting [32]), the LOAEL was over 355 mg/kg/day and the NOAEL is at least 355 mg/kg/day. Besides, in the data set on rat [11] (setting [33]), the LEL was 4.1 mg/kg/day and the NEL was under 4.1 mg/kg/day.

`O=C(O)COc1nc(Cl)c(Cl)cc1Cl` [Triclopyr]: the NEL in the data set with mouse [12] (systemic / in life observation / body weight / body weight + systemic / urinalysis / protein / protein + systemic / urinalysis / specific …) is 2.5 mg/kg/day; in the data set with rat [13] (setting [34]) it was 5 mg/kg/day; with dog [14], under 5 mg/kg/day; in the data set with dog [15] it was 0.5 mg/kg/day; in the data set on rat [16] (setting [36]) it was 2 mg/kg/day; in the data set with rat [16] (setting [38]) it was 2 mg/kg/day. The NEL in the data set on rat [16] (setting [23]) was 25 mg/kg/day; in the data set on rat [17] (setting [39]) it was 100 mg/kg/day; in the data set with rat [17] (setting [40]), under 50 mg/kg/day; with dog [18] it was 0.5 mg/kg/day. Also, the NOAEL was 12.5 mg/kg/day in the data set with mouse [12] (systemic / organ weight / kidney / absolute + systemic / organ weight / pituitary gland / absolute); 5 mg/kg/day in the data set with rat [13] (setting [34]); under 5 mg/kg/day in the data set on dog [14]; 0.5 mg/kg/day with dog [15]; 2 mg/kg/day in the data set with rat [16] (setting [36]); 2 mg/kg/day in the data set on rat [16] (setting [38]). Further, the NOAEL with rat [16] (setting [23]) was at least 250 mg/kg/day; in the data set with rat [17] (setting [39]) it was 100 mg/kg/day; in the data set on rat [17] (setting [40]), under 50 mg/kg/day; with dog [18], 0.5 mg/kg/day. The LOAEL in the data set on mouse [12] (systemic / organ weight / kidney / absolute + systemic / organ weight / pituitary gland / absolute + systemic / in life observation / body …) was 62.5 mg/kg/day; in the data set with rat [13] (systemic / pathology microscopic / kidney / degeneration), 20 mg/kg/day; with dog [14] it was 5 mg/kg/day; in the data set with dog [15] it was 2.5 mg/kg/day; in the data set with rat [16] (setting [35]), 25 mg/kg/day; in the data set on rat [16] (setting [37]), 25 mg/kg/day. For the same molecule, the LOAEL in the data set on rat [16] (setting [23]) was over 250 mg/kg/day; with rat [17] (setting [39]), 200 mg/kg/day; in the data set on rat [17] (setting [40]) it was 50 mg/kg/day; with dog [18], 2.5 mg/kg/day. Besides, the LEL in the data set with mouse [12] (systemic / urinalysis / protein / protein + systemic / clinical chemistry / urea nitrogen / urea nitrogen + systemic / pathology gross / …) came out at 12.5 mg/kg/day; with rat [13] (systemic / pathology microscopic / kidney / degeneration + systemic / in life observation / body weight / body weight + systemic / in life …) it was 20 mg/kg/day; with dog [14], 5 mg/kg/day; in the data set on dog [15], 2.5 mg/kg/day; in the data set on rat [16] (setting [35]) it was 25 mg/kg/day; with rat [16] (setting [37]), 25 mg/kg/day. For the same molecule, the LEL in the data set on rat [16] (setting [23]) is 250 mg/kg/day; in the data set with rat [17] (setting [39]), 200 mg/kg/day; in the data set with rat [17] (setting [40]), 50 mg/kg/day; in the data set on dog [18] it was 2.5 mg/kg/day.
